Data from patent US20260159497A1, “SOLID FORMS OF A COMPLEMENT FACTOR B INHIBITOR” (Novartis Pharma AG, priority 2022, published 2026).
Where two headings read alike, the source gives them in different places.

Experiments:
Type in all cases: physicochemical
[1] = Water content by Karl Fischer titration; settings: ambient conditions; relative to total weight of the salt / free form
[2] = Solubility in water and biorelevant buffers at 25° C.; settings: for XRPD of residual solid after solubility test / pH of solubility sample (pH) / solubility at 24 h: 25° C., 24 h; for solubility at 24 h: thermodynamic from solid, read-out: Solubility (mg/mL) S
Method: Purchase sodium taurocholate (NaTC) from supplier. Account for assay. Add amount corresponding to 3 mM to PBS V1. Stir until dissolved. Equilibrate 1 h at 25° C. or 37° C. before use. Dispose after 48 h.
Purchase FaSSIF-V2 from supplier (biorelevant.com). Amount added to PBS-V1 according to Table 1. Stir until dissolved. Equilibrate 1 h at 25° C. or 37° C. before use. Dispose after 48 h.
Purchase FeSSIF-V2 from supplier (biorelevant.com). Amount added to PBS-V1 according to Table 1. Stir until dissolved. Equilibrate 1 h at 25° C. or 37° C. before use. Dispose after 48 h.

[3] = Flow properties
From the text: See U.S. Pat. No. 11,642,315.

[4] = Compression stability (XRPD after compression); settings: 4 tons of compression for 5 min
From the text: Method: […] Afterwards, characterize the sample by XRPD to detect any change in the solid state.

[5] = Grinding and wet granulation
From the text: Method: Granulate was obtained in solid-state forms. […] Dry the wet-cake under vacuum or at atmospheric pressure. Evaluate solid form and degree of crystallinity by e.g. XRPD and/or DSC.

[6] = Dynamic vapor sorption (DVS) mass change; settings: for Mass change by DVS, Desorption (%) / Mass change by DVS, Sorption (%): Table 5, 25 degree C., based on dry weight; for Mass change by DVS, 1st Desorption (%) / Mass change by DVS, 1st Sorption (%) / Mass change by DVS, 2nd Desorption (%) / Mass change by DVS, 2nd Sorption (%): Table 6, DVS at 25 degree C.
From the text: [table] The mass change by DVS isotherm (2 cycles 40-0-95-0-40% RH) are in the tables below. The mass change is based on the dry weight of each.

## COc1cc(C)c2[nH]ccc2c1CN1CCC2(C[C@H]1c1ccc(C(=O)O)cc1)CC(F)(F)C2.Cc1ccc(S(=O)(=O)O)cc1 [Form B, (S)-4-(2,2-difluoro-7-((5-methoxy-7-methyl-1H-indol-4-yl)methyl)-7-azaspiro[3.5]nonan-6-yl)benzoic acid p-toluene sulfonate]
[1]
  water content by Karl Fischer titration: 2.3 % w/w
[2]; FaSSGF, pH 1.6
  XRPD of residual solid after solubility test: No change
  pH of solubility sample (pH): 1.77
[2]; PBS-V1 + 3 mM NaTC, pH 6.5
  pH of solubility sample (pH): 6.42
[2]; PBS-V1 + 0.3 FeSSIF-V2, pH 6.5
  XRPD of residual solid after solubility test: Form A
  pH of solubility sample (pH): 6.12
[2]; PBS-V1 + 2.0 FeSSIF-V2, pH 6.5
  XRPD of residual solid after solubility test: Form A
  pH of solubility sample (pH): 6.19
[2]; PBS-V1 + FaSSIF-V2, pH 6.5
  pH of solubility sample (pH): 6.35
  solubility at 24 h: > 2 mg/mL
[2]; PBS-V1 + FeSSIF-V2, pH 6.5
  XRPD of residual solid after solubility test: Form A
  pH of solubility sample (pH): 6.40
  solubility at 24 h: 0.2 mg/mL
[2]; fassgf or other biorelevant, FaSSGF, pH 1.6
  solubility at 24 h: 0.49 mg/mL
[2]; fassgf or other biorelevant, PBS-V1 + 3 mM NaTC, pH 6.5
  solubility at 24 h: > 2 mg/mL
[2]; fassgf or other biorelevant, PBS-V1 + 0.3 FeSSIF-V2, pH 6.5
  solubility at 24 h: 0.1 mg/mL
[2]; fassgf or other biorelevant, PBS-V1 + 2.0 FeSSIF-V2, pH 6.5
  solubility at 24 h: 0.31 mg/mL
[2]; water
  solubility at 24 h: 0.39 mg/mL
  pH of solubility sample (pH): 3.89
[2]; water and biorelevant buffers at 25° C., all media
  solubility at 24 h compared with Form A: significantly increased solubility
[3]
  bulk density: good bulk density
  flowability: good flowability
[4]
  form change in XRPD after compression: no form change
[5]; after grinding
  crystallinity from XRPD pattern after grinding: crystallinity decrease
[5]; dry grinding (2 min and 5 min) and wet granulation (water and ethanol)
  form change after grinding and wet granulation: did not lead to any form change
[6]
  water sorption and desorption behavior: reversible water sorption and desorption behavior with no hysteresis
[6]; 95% RH at 25° C.
  maximum water uptake in DVS: 2.67%
  moisture absorbed by DVS (absorbs up to): up to 2.7%
[6]; 0% RH
  Mass change by DVS, Desorption (%): 0.00%
  Mass change by DVS, Sorption (%): 0.00%
  Mass change by DVS, 1st Desorption (%): 0.00%
  Mass change by DVS, 1st Sorption (%): 0.00%
  Mass change by DVS, 2nd Desorption (%): −0.01%
  Mass change by DVS, 2nd Sorption (%): −0.01%
[6]; 10% RH
  Mass change by DVS, Desorption (%): 1.11%
  Mass change by DVS, Sorption (%): 1.08%
  Mass change by DVS, 1st Desorption (%): 1.13%
  Mass change by DVS, 1st Sorption (%): 1.11%
  Mass change by DVS, 2nd Desorption (%): 1.13%
  Mass change by DVS, 2nd Sorption (%): 1.11%
[6]; 20% RH
  Mass change by DVS, Desorption (%): 1.66%
  Mass change by DVS, Sorption (%): 1.64%
  Mass change by DVS, 1st Desorption (%): 1.70%
  Mass change by DVS, 1st Sorption (%): 1.69%
  Mass change by DVS, 2nd Desorption (%): 1.70%
  Mass change by DVS, 2nd Sorption (%): 1.68%
[6]; 30% RH
  Mass change by DVS, Desorption (%): 1.93%
  Mass change by DVS, Sorption (%): 1.92%
  Mass change by DVS, 1st Desorption (%): 1.98%
  Mass change by DVS, 1st Sorption (%): 1.97%
  Mass change by DVS, 2nd Desorption (%): 1.98%
  Mass change by DVS, 2nd Sorption (%): 1.97%
[6]; 40% RH
  Mass change by DVS, Desorption (%): 2.10%
  Mass change by DVS, Sorption (%): 2.09%
  Mass change by DVS, 1st Desorption (%): 2.16%
  Mass change by DVS, 1st Sorption (%): 2.15%
  Mass change by DVS, 2nd Desorption (%): 2.16%
  Mass change by DVS, 2nd Sorption (%): 2.15%
[6]; 50% RH
  Mass change by DVS, Desorption (%): 2.22%
  Mass change by DVS, Sorption (%): 2.21%
[6]; 60% RH
  Mass change by DVS, Desorption (%): 2.32%
  Mass change by DVS, Sorption (%): 2.31%
[6]; 70% RH
  Mass change by DVS, Desorption (%): 2.39%
  Mass change by DVS, Sorption (%): 2.38%
[6]; 80% RH
  Mass change by DVS, Desorption (%): 2.46%
  Mass change by DVS, Sorption (%): 2.45%
[6]; 90% RH
  Mass change by DVS, Desorption (%): 2.54%
  Mass change by DVS, Sorption (%): 2.54%
[6]; 95% RH
  Mass change by DVS, Desorption (%): 2.62%
  Mass change by DVS, Sorption (%): 2.62%
